ChEMBL document CHEMBL5113392, “Novel hybrid pyrrolidinedione-thiazolidinones as potential anticancer agents: Synthesis and biological evaluation” (Eur J Med Chem, 2022)
Activity calls are given as the source filed them. The rule behind the calls is not given here.

Legend:
[1] = tested on: CCRF-CEM; assay: Anticancer activity against human CCRF-CEM cells assessed as growth inhibition incubated for 48 hrs by SRB assay; assay type: functional
[2] = tested on: HL-60; assay: Anticancer activity against human HL-60 cells assessed as growth inhibition incubated for 48 hrs by SRB assay; assay type: functional
[3] = tested on: CCRF-CEM; assay: Anticancer activity against human CCRF-CEM cells assessed as total growth inhibition incubated for 48 hrs by SRB assay; assay type: functional
[4] = tested on: COLO 205; assay: Anticancer activity against human COLO 205 cells assessed as growth inhibition incubated for 48 hrs by SRB assay; assay type: functional
[5] = tested on: HCC 2998; assay: Anticancer activity against human HCC 2998 cells assessed as growth inhibition incubated for 48 hrs by SRB assay; assay type: functional
[6] = tested on: HT-29; assay: Anticancer activity against human HT-29 cells assessed as growth inhibition incubated for 48 hrs by SRB assay; assay type: functional
[7] = tested on: KM12; assay: Anticancer activity against human KM12 cells assessed as growth inhibition incubated for 48 hrs by SRB assay; assay type: functional
[8] = tested on: SW-620; assay: Anticancer activity against human SW-620 cells assessed as growth inhibition incubated for 48 hrs by SRB assay; assay type: functional
[9] = tested on: M14; assay: Anticancer activity against human M14 cells assessed as growth inhibition incubated for 48 hrs by SRB assay; assay type: functional
[10] = tested on: SK-MEL-5; assay: Anticancer activity against human SK-MEL-5 cells assessed as growth inhibition incubated for 48 hrs by SRB assay; assay type: functional
[11] = tested on: OVCAR-3; assay: Anticancer activity against human OVCAR-3 cells assessed as growth inhibition incubated for 48 hrs by SRB assay; assay type: functional
[12] = tested on: OVCAR-4; assay: Anticancer activity against human OVCAR-4 cells assessed as growth inhibition incubated for 48 hrs by SRB assay; assay type: functional
[13] = tested on: CAKI-1; assay: Anticancer activity against human CAKI-1 cells assessed as growth inhibition incubated for 48 hrs by SRB assay; assay type: functional
[14] = tested on: SN12C; assay: Anticancer activity against human SN12C cells assessed as growth inhibition incubated for 48 hrs by SRB assay; assay type: functional
[15] = tested on: DU-145; assay: Anticancer activity against human DU-145 cells assessed as growth inhibition incubated for 48 hrs by SRB assay; assay type: functional
[16] = tested on: NCI-H322M; assay: Anticancer activity against human NCI-H322M cells assessed as total growth inhibition incubated for 48 hrs by SRB assay; assay type: functional
[17] = tested on: NCI-H522; assay: Anticancer activity against human NCI-H522 cells assessed as total growth inhibition incubated for 48 hrs by SRB assay; assay type: functional
[18] = tested on: HT-29; assay: Anticancer activity against human HT-29 cells assessed as total growth inhibition incubated for 48 hrs by SRB assay; assay type: functional
[19] = tested on: SF-295; assay: Anticancer activity against human SF-295 cells assessed as total growth inhibition incubated for 48 hrs by SRB assay; assay type: functional
[20] = tested on: Malme-3M; assay: Anticancer activity against human Malme-3M cells assessed as total growth inhibition incubated for 48 hrs by SRB assay; assay type: functional
[21] = tested on: UACC-257; assay: Anticancer activity against human UACC-257 cells assessed as total growth inhibition incubated for 48 hrs by SRB assay; assay type: functional
[22] = tested on: IGROV-1; assay: Anticancer activity against human IGROV-1 cells assessed as total growth inhibition incubated for 48 hrs by SRB assay; assay type: functional
[23] = tested on: OVCAR-3; assay: Anticancer activity against human OVCAR-3 cells assessed as total growth inhibition incubated for 48 hrs by SRB assay; assay type: functional
[24] = tested on: OVCAR-4; assay: Anticancer activity against human OVCAR-4 cells assessed as total growth inhibition incubated for 48 hrs by SRB assay; assay type: functional
[25] = tested on: 786-0; assay: Anticancer activity against human 786-0 cells assessed as total growth inhibition incubated for 48 hrs by SRB assay; assay type: functional
[26] = tested on: MDA-MB-231; assay: Anticancer activity against human MDA-MB-231 cells assessed as total growth inhibition incubated for 48 hrs by SRB assay; assay type: functional
[27] = tested on: Hs-578T; assay: Anticancer activity against human Hs-578T cells assessed as total growth inhibition incubated for 48 hrs by SRB assay; assay type: functional
[28] = tested on: RPMI-8226; assay: Anticancer activity against human RPMI-8226 cells assessed as lethality incubated for 48 hrs by SRB assay; assay type: functional; details: read-out: LC50 (the source's name)
[29] = tested on: NCI-H23; assay: Anticancer activity against human NCI-H23 cells assessed as lethality incubated for 48 hrs by SRB assay; assay type: functional; details: read-out: LC50 (the source's name)
[30] = tested on: NCI-H322M; assay: Anticancer activity against human NCI-H322M cells assessed as lethality incubated for 48 hrs by SRB assay; assay type: functional; details: read-out: LC50 (the source's name)
[31] = tested on: NCI-H522; assay: Anticancer activity against human NCI-H522 cells assessed as lethality incubated for 48 hrs by SRB assay; assay type: functional; details: read-out: LC50 (the source's name)
[32] = tested on: HCT-15; assay: Anticancer activity against human HCT-15 cells assessed as lethality incubated for 48 hrs by SRB assay; assay type: functional; details: read-out: LC50 (the source's name)
[33] = tested on: SF-268; assay: Anticancer activity against human SF-268 cells assessed as lethality incubated for 48 hrs by SRB assay; assay type: functional; details: read-out: LC50 (the source's name)
[34] = tested on: U-251; assay: Anticancer activity against human U-251 cells assessed as lethality incubated for 48 hrs by SRB assay; assay type: functional; details: read-out: LC50 (the source's name)
[35] = tested on: OVCAR-3; assay: Anticancer activity against human OVCAR-3 cells assessed as lethality incubated for 48 hrs by SRB assay; assay type: functional; details: read-out: LC50 (the source's name)
[36] = tested on: RXF 393; assay: Anticancer activity against human RXF 393 cells assessed as lethality incubated for 48 hrs by SRB assay; assay type: functional; details: read-out: LC50 (the source's name)
[37] = tested on: UO-31; assay: Anticancer activity against human UO-31 cells assessed as lethality incubated for 48 hrs by SRB assay; assay type: functional; details: read-out: LC50 (the source's name)
[38] = tested on: DU-145; assay: Anticancer activity against human DU-145 cells assessed as lethality incubated for 48 hrs by SRB assay; assay type: functional; details: read-out: LC50 (the source's name)
[39] = tested on: T47D; assay: Anticancer activity against human T47D cells assessed as lethality incubated for 48 hrs by SRB assay; assay type: functional; details: read-out: LC50 (the source's name)
[40] = tested on: Jurkat; assay: Anticancer activity against human Jurkat cells assessed as cell growth inhibition incubated for 72 hrs by MTT assay; assay type: functional
[41] = tested on: MCF7; assay: Anticancer activity against human MCF7 cells assessed as cell growth inhibition incubated for 72 hrs by MTT assay; assay type: functional
[42] = tested on: SK-OV-3; assay: Anticancer activity against human SK-OV-3 cells assessed as cell growth inhibition incubated for 72 hrs by MTT assay; assay type: functional
[43] = Cytotoxicity against human HaCaT cells assessed as cell growth inhibition incubated for 72 hrs by MTT assay; assay type: toxicity, cell-based
[44] = Selectivity index, ratio of GI50 for human HaCaT cells to GI50 for human KB 3-1 cells; assay type: toxicity; details: HaCaT cells versus KB 3-1 cells, read-out: RatioGI50
[45] = Cytotoxicity against mitogen activated human peripheral blood lymphocytes assessed as cell growth inhibition incubated for 48 hrs by MTT assay; assay type: toxicity, cell-based, Lymphocyte
[46] = tested on: Jurkat; assay: Induction of morphological changes in human Jurkat cells assessed as change in cell shape incubated for 24 hrs by Hoechst 33258 and propidium iodide staining based fluorescence microscopy; assay type: functional
[47] = tested on: Lymphocyte; assay: Induction of morphological changes in mitogen activated human peripheral blood lymphocytes assessed as increase in necrotic cells incubated for 24 hrs by Hoechst 33258 and propidium iodide staining based fluorescence microscopy; assay type: toxicity, cell-based
[48] = tested on: Salmon testes DNA; assay: Displacement of methyl green from salmon sperm DNA at 1 uM measured after 2 hrs by fluorescence plate reader method relative to control; assay type: nucleic-acid assay; details: Salmo salar
[49] = tested on: Salmon testes DNA; assay: Displacement of methyl green from salmon sperm DNA at 10 uM measured after 2 hrs by fluorescence plate reader method relative to control; assay type: nucleic-acid assay; details: Salmo salar

With `O=C1CC(N2C(=O)/C(=C/C(Cl)=C/c3ccc([N+](=O)[O-])cc3)SC2=S)C(=O)N1c1ccc(Cl)cc1` (stereo not drawn) the GI50 [1] was 0.486 µM, the GI50 [2] was 1.45 µM and the TGI [3] was 12.4 µM. It also gave a GI50 [4] of 1.4 µM, a GI50 [5] of 1.59 µM and a GI50 [6] of 0.632 µM. For the same compound, the GI50 [7] was 1.96 µM, the GI50 [8] was 0.508 µM and the GI50 [9] was 2.11 µM. For the same compound, the GI50 [10] was 1.95 µM, the GI50 [11] was 0.721 µM and the GI50 [12] was 5.55 µM. It also gave a GI50 [13] of 1.13 µM, a GI50 [14] of 1.69 µM and a GI50 [15] of 2.09 µM. It also gave a TGI [16] of over 100 µM, a TGI [17] of 4.36 µM and a TGI [18] of 4.6 µM. The TGI [19] was 3.24 µM, the TGI [20] was 11.6 µM and the TGI [21] was 66.5 µM. It also gave a TGI [22] of 3.26 µM, a TGI [23] of 2.62 µM and a TGI [24] of over 100 µM. For the same compound, the TGI [25] was 3.33 µM, the TGI [26] was 47.8 µM and the TGI [27] was over 100 µM. It also gave a CC50 [28] of 71 µM, a CC50 [29] of 15 µM and a CC50 [30] of over 100 µM. For the same compound, the CC50 [31] was 14.1 µM, the CC50 [32] was 77.4 µM and the CC50 [33] was over 100 µM. For the same compound, the CC50 [34] was 14.1 µM, the CC50 [35] was 8.89 µM and the CC50 [36] was 5.86 µM. For the same compound, the CC50 [37] was over 100 µM, the CC50 [38] was over 100 µM and the CC50 [39] was over 100 µM. It also gave a GI50 [40] of 3.4 µM, a GI50 [41] of 7.95 µM and a GI50 [42] of 65.9 µM. The GI50 at 72 h [43] was over 100 µM, the selectivity ratio [44] was 1.42 and the GI50 at 48 h [45] was 28.9 µM. The Activity [46] was “Active”, the Activity [47] was “Toxic” and the Activity [48] was 4.3%. For the same compound, the Activity [49] was 7.9%.

`O=C1CC(N2C(=O)/C(=C/C(Cl)=C/c3ccc([N+](=O)[O-])cc3)SC2=S)C(=O)N1c1ccc(O)cc1` (stereo not drawn) showed a GI50 [1] of 0.385 µM, a GI50 [2] of 2.44 µM and a TGI [3] of 3.87 µM. For the same compound, the GI50 [4] was 1.83 µM, the GI50 [5] was 1.48 µM and the GI50 [6] was 0.847 µM. For the same compound, the GI50 [7] was 1.83 µM, the GI50 [8] was 0.684 µM and the GI50 [9] was 1.46 µM. It also gave a GI50 [10] of 1.92 µM, a GI50 [11] of 0.604 µM and a GI50 [12] of 5.13 µM. For the same compound, the GI50 [13] was 1.15 µM, the GI50 [14] was 1.6 µM and the GI50 [15] was 1.72 µM. The TGI [16] was 6.67 µM, the TGI [17] was 4.23 µM and the TGI [18] was 8.78 µM. It also gave a TGI [19] of 2.7 µM, a TGI [20] of 5.79 µM and a TGI [21] of 9.12 µM. For the same compound, the TGI [22] was 2.68 µM, the TGI [23] was 1.96 µM and the TGI [24] was 17.3 µM. The TGI [25] was 4.8 µM, the TGI [26] was 5.06 µM and the TGI [27] was 12.6 µM. It also gave a CC50 [28] of over 100 µM, a CC50 [29] of 7.94 µM and a CC50 [30] of 24.3 µM. The CC50 [31] was 9.65 µM, the CC50 [32] was 6.09 µM and the CC50 [33] was 47.1 µM. For the same compound, the CC50 [34] was 6.53 µM, the CC50 [35] was 4.96 µM and the CC50 [36] was 6.76 µM. It also gave a CC50 [37] of 5.78 µM, a CC50 [38] of 6.62 µM and a CC50 [39] of over 100 µM. The GI50 [40] was 1.3 µM, the GI50 [41] was 4 µM and the GI50 [42] was over 100 µM. For the same compound, the GI50 at 72 h [43] was 73.6 µM, the selectivity ratio [44] was 9.2 and the GI50 at 48 h [45] was 51.2 µM. For the same compound, the Activity [46] was “Active”, the Activity [47] was “Toxic” and the Activity [48] was 1.4%. For the same compound, the Activity [49] was 6.2%.
